IC50 data for 7 molecules are collected here from BindingDB's records for doi:10.1016/j.bmc.2020.115544 (Duquesne University, 2020).

Each structure is given as a SMILES string.

The nature of assay [1]: Inhibition of GARFTase in human KB cells expressing RFC/FRalpha/PCFT assessed as reduction in cell growth after 96 hrs in presence of folic acid by Cell-Titer Blue assay.
A short description of assay [2]: Inhibition of GARFTase in human KB cells expressing RFC/FRalpha/PCFT assessed as reduction in cell growth after 96 hrs by Cell-Titer Blue assay.

With `Nc1nc2[nH]c(CCNc3ccc(C(=O)N[C@@H](CCC(=O)O)C(=O)O)cc3)cc2c(=O)[nH]1`, the IC50 in assay [1] was determined as 666 nM; in assay [2] it was 0.32 nM.
As to `Nc1nc2[nH]c(CCCNc3ccc(C(=O)N[C@@H](CCC(=O)O)C(=O)O)cc3)cc2c(=O)[nH]1`, the results for the IC50 in assay [1] and in assay [2] were above 1000 nM and 0.95 nM, respectively.
For `Nc1nc2[nH]c(CCCOc3ccc(C(=O)N[C@@H](CCC(=O)O)C(=O)O)cc3)cc2c(=O)[nH]1` the same measures were above 1000 nM and 2.5 nM.
With `Nc1nc2[nH]c(CCCSc3ccc(C(=O)N[C@@H](CCC(=O)O)C(=O)O)cc3)cc2c(=O)[nH]1`, the values for the IC50 in assay [1] and in assay [2] were 757 nM and 0.3 nM, respectively.
For `Nc1nc2[nH]c(CCCN(C=O)c3ccc(C(=O)N[C@@H](CCC(=O)O)C(=O)O)cc3)cc2c(=O)[nH]1` the same measures were above 1000 nM and 13 nM.
For `Nc1nc2[nH]c(CCCN(C(=O)C(F)(F)F)c3ccc(C(=O)N[C@@H](CCC(=O)O)C(=O)O)cc3)cc2c(=O)[nH]1`, the IC50 was above 1000 nM in assay [1] and 5.4 nM in assay [2].
For `CC(=O)N(CCCc1cc2c(=O)[nH]c(N)nc2[nH]1)c1ccc(C(=O)N[C@@H](CCC(=O)O)C(=O)O)cc1` the same measures were above 1000 nM and 40 nM.

Usually IC50 stands for the point on the concentration scale where inhibition reaches its midpoint.
